System: not listed separately
Assay: Selectivity index, ratio of CC50 for african green monkey Vero cells to EC50 for Vesicular stomatitis virus
Format: toxicity, cell-based
Details: read-out: Ratio CC50/EC50

| Compound | selectivity ratio |
| --- | --- |
| O=C(O)c1cnc2c(cnn2-c2ccccc2)c1Nc1ccccc1 | 54 |
| O=C(O)c1cnc2c(cnn2-c2ccccc2)c1Nc1cccc(Cl)c1 | 37 |

System: Vesicular stomatitis virus
Assay: Antiviral activity against Vesicular stomatitis virus infected Vero cells after 72 hr by plaque reduction assay
Format: functional, organism-based
Details: not given

| Compound | EC50 [nM] |
| --- | --- |
| O=C(O)c1cnc2c(cnn2-c2ccccc2)c1Nc1ccccc1 | 2500 |
| O=C(O)c1cnc2c(cnn2-c2ccccc2)c1Nc1cccc(Cl)c1 | 1000 |

System: Mayaro virus
Assay: Antiviral activity against Mayaro virus infected in Vero cells after 72 hr by plaque reduction assay
Format: functional, organism-based
Details: not given

| Compound | EC50 [nM] |
| --- | --- |
| O=C(O)c1cnc2c(cnn2-c2ccccc2)c1Nc1ccccc1 | 4800 |
| O=C(O)c1cnc2c(cnn2-c2ccccc2)c1Nc1cccc(Cl)c1 | 520 |

System: not listed separately
Assay: Selectivity index, ratio of CC50 for african green monkey Vero cells to EC50 for Mayaro virus
Format: toxicity, cell-based
Details: read-out: Ratio CC50/EC50

| Compound | selectivity ratio |
| --- | --- |
| O=C(O)c1cnc2c(cnn2-c2ccccc2)c1Nc1ccccc1 | 28 |
| O=C(O)c1cnc2c(cnn2-c2ccccc2)c1Nc1cccc(Cl)c1 | 71 |
| Nc1nc2c(ncn2COCCO)c(=O)[nH]1 [ACYCLOVIR] | 880 |

System: not listed separately
Assay: Cytotoxicity against Chlorocebus aethiops (African green monkey) Vero cells after 72 hr by MTT assay
Format: cell-based
Details: chlorocebus sabaeus

| Compound | CC50 at 72 h [µM] |
| --- | --- |
| CCOC(=O)c1cnc2c(cnn2-c2ccccc2)c1Nc1cccc([N+](=O)[O-])c1 | 1000 |
| O=C(O)c1cnc2c(cnn2-c2ccccc2)c1Nc1ccccc1 | 135 |
| O=C(O)c1cnc2c(cnn2-c2ccccc2)c1Nc1cccc(Br)c1 | 600 |
| O=C(O)c1cnc2c(cnn2-c2ccccc2)c1Nc1cccc(Cl)c1 | 37.4 |
| Nc1nc2c(ncn2COCCO)c(=O)[nH]1 [ACYCLOVIR] | 960 |

System: not listed separately
Assay: Selectivity index, ratio of CC50 for african green monkey Vero cells to EC50 for Herpes simplex virus 1
Format: toxicity, cell-based
Details: read-out: Ratio CC50/EC50

| Compound | selectivity ratio |
| --- | --- |
| CCOC(=O)c1cnc2c(cnn2-c2ccccc2)c1Nc1cccc([N+](=O)[O-])c1 | 141 |
| O=C(O)c1cnc2c(cnn2-c2ccccc2)c1Nc1cccc(Br)c1 | 272 |
| Nc1nc2c(ncn2COCCO)c(=O)[nH]1 [ACYCLOVIR] | 880 |

System: Human alphaherpesvirus 1
Assay: Antiviral activity against Human herpesvirus 1 infected in Vero cells after 72 hr by plaque reduction assay
Format: functional, organism-based
Details: Human alphaherpesvirus 1, Vero

| Compound | EC50 [µM] |
| --- | --- |
| CCOC(=O)c1cnc2c(cnn2-c2ccccc2)c1Nc1cccc([N+](=O)[O-])c1 | 6.8 |
| O=C(O)c1cnc2c(cnn2-c2ccccc2)c1Nc1cccc(Br)c1 | 2.2 |

System: Human alphaherpesvirus 1
Assay: Antiviral activity against Human herpesvirus 1 at 10 uM by end point titration assay
Format: functional
Details: not given

| Compound | inhibition at 10 µM [%] |
| --- | --- |
| Nc1nc2c(ncn2COCCO)c(=O)[nH]1 [ACYCLOVIR] | 96 |

System: Human alphaherpesvirus 1
Assay: Antiviral activity against Human herpesvirus 1 at 50 uM by end point titration assay
Format: functional
Details: not given

| Compound | inhibition at 50 µM [%] |
| --- | --- |
| CCOC(=O)c1cnc2c(cnn2-c2ccccc2)c1Nc1cc(C)ccn1 | 60 |
| CCOC(=O)c1cnc2c(cnn2-c2ccccc2)c1Nc1ccc(C)cn1 | 90 |
| CCOC(=O)c1cnc2c(cnn2-c2ccccc2)c1Nc1cccc(C)n1 | 90 |
| Cc1ccnc(Nc2c(C(=O)O)cnc3c2cnn3-c2ccccc2)c1 | 75 |
| Cc1ccc(Nc2c(C(=O)O)cnc3c2cnn3-c2ccccc2)nc1 | 60 |
| Cc1cccc(Nc2c(C(=O)O)cnc3c2cnn3-c2ccccc2)n1 | 21 |
| CCOC(=O)c1cnc2c(cnn2-c2ccccc2)c1Nc1ccc(Cl)cc1 | 92 |
| CCOC(=O)c1cnc2c(cnn2-c2ccccc2)c1Nc1cccc(OC)c1 | 98 |
| CCOC(=O)c1cnc2c(cnn2-c2ccccc2)c1Nc1ccc(OC)cc1 | 75.5 |
| CCOC(=O)c1cnc2c(cnn2-c2ccccc2)c1Nc1cccc(F)c1 | 0 |
| CCOC(=O)c1cnc2c(cnn2-c2ccccc2)c1Nc1ccccc1 | 90 |
| CCOC(=O)c1cnc2c(cnn2-c2ccccc2)c1Nc1ccc(C)cc1 | 69.2 |
| CCOC(=O)c1cnc2c(cnn2-c2ccccc2)c1Nc1cccc(Cl)c1 | 60 |
| CCOC(=O)c1cnc2c(cnn2-c2ccccc2)c1Nc1cccc([N+](=O)[O-])c1 | 90 |
| CCOC(=O)c1cnc2c(cnn2-c2ccccc2)c1Nc1ccc([N+](=O)[O-])cc1 | 0 |
| CCOC(=O)c1cnc2c(cnn2-c2ccccc2)c1Nc1cccc(Br)c1 | 70 |
| CCOC(=O)c1cnc2c(cnn2-c2ccccc2)c1Nc1ccc(Br)cc1 | 75 |
| CCOC(=O)c1cnc2c(cnn2-c2ccccc2)c1Nc1cccc(C)c1 | 90 |
| COc1ccc(Nc2c(C(=O)O)cnc3c2cnn3-c2ccccc2)cc1 | 80.6 |
| O=C(O)c1cnc2c(cnn2-c2ccccc2)c1Nc1ccc(Cl)cc1 | 68 |
| O=C(O)c1cnc2c(cnn2-c2ccccc2)c1Nc1ccc(Br)cc1 | 37 |
| O=C(O)c1cnc2c(cnn2-c2ccccc2)c1Nc1ccc([N+](=O)[O-])cc1 | 80 |
| COc1cccc(Nc2c(C(=O)O)cnc3c2cnn3-c2ccccc2)c1 | 75.5 |
| O=C(O)c1cnc2c(cnn2-c2ccccc2)c1Nc1ccccc1 | 0 |
| O=C(O)c1cnc2c(cnn2-c2ccccc2)c1Nc1cccc(Br)c1 | 84 |
| Cc1cccc(Nc2c(C(=O)O)cnc3c2cnn3-c2ccccc2)c1 | 38.5 |
| O=C(O)c1cnc2c(cnn2-c2ccccc2)c1Nc1cccc([N+](=O)[O-])c1 | 20.6 |
| Cc1ccc(Nc2c(C(=O)O)cnc3c2cnn3-c2ccccc2)cc1 | 58.4 |
| O=C(O)c1cnc2c(cnn2-c2ccccc2)c1Nc1cccc(Cl)c1 | 68 |
| O=C(O)c1cnc2c(cnn2-c2ccccc2)c1Nc1cccc(F)c1 | 68 |
